What was measured:
Assay type in all cases: functional
[1] = tested on: Staphylococcus aureus; test: Antimicrobial activity against Staphylococcus aureus at 100 ug by antimicrobial disk assay; details: read-out: IZ
[2] = tested on: Staphylococcus aureus; test: Antimicrobial activity against Staphylococcus aureus at 25 ug by antimicrobial disk assay; details: read-out: IZ
[3] = tested on: Staphylococcus aureus; test: Antimicrobial activity against Staphylococcus aureus at 50 ug by antimicrobial disk assay; details: read-out: IZ
[4] = tested on: Staphylococcus aureus; test: Antimicrobial activity against Staphylococcus aureus at 10 units by antimicrobial disk assay
[5] = tested on: Staphylococcus aureus; test: Antimicrobial activity against Staphylococcus aureus at 10 ug by antimicrobial disk assay; details: read-out: IZ
[6] = tested on: Staphylococcus aureus; test: Antimicrobial activity against Staphylococcus aureus at 30 ug by antimicrobial disk assay; details: read-out: IZ

With C/C=C/C1=C(C)C(=O)C(C)(O)O1 (centres undefined) the zone of inhibition at 100 µg/disc [1] was 9 mm.

With C/C=C(\C)C(=O)O[C@H]1C=CC(=O)O[C@H]1/C=C/C(=O)C(C)O (some centres undefined) the zone of inhibition at 25 µg/disc [2] was 22 mm.

Compound C/C=C(\C)C(=O)O[C@H]1C=CC(=O)O[C@H]1CCC(=O)C(C)O (some centres undefined) [6,7-DIHYDROPHOMOPSOLIDE A] has a zone of inhibition at 50 µg/disc [3] of 9 mm.

C/C=C(\C)C(=O)O[C@H]1C=CC(=O)O[C@H]1CC[C@H](O)[C@H](C)O [6,7-DIHYDROPHOMOPSOLIDE B] showed a zone of inhibition at 100 µg/disc [1] of 10 mm.

In the case of CC1(C)S[C@@H]2[C@H](NC(=O)Cc3ccccc3)C(=O)N2[C@H]1C(=O)O [PENICILLIN G], the “inhibition zone (IZ)” value [4] is reported as 22 mm.

Work on C/C=C(\C)C(=O)O[C@H]1C=CC(=O)O[C@H]1/C=C\C(=O)C(C)O (some centres undefined) [PHOMOPSOLIDE A] yielded a zone of inhibition at 25 µg/disc [2] of 22 mm.

With C/C=C(\C)C(=O)O[C@H]1C=CC(=O)O[C@H]1/C=C/[C@H](O)[C@H](C)O [PHOMOPSOLIDE B] the zone of inhibition at 25 µg/disc [2] was 20 mm.

For CN[C@@H]1[C@H](O[C@H]2[C@H](O[C@H]3[C@H](O)[C@@H](O)[C@H](N=C(N)N)[C@@H](O)[C@@H]3N=C(N)N)O[C@@H](C)[C@]2(O)C=O)O[C@@H](CO)[C@H](O)[C@H]1O [STREPTOMYCIN], the zone of inhibition at 10 µg/disc [5] was 13 mm.

In the case of CN(C)[C@@H]1C(O)=C(C(N)=O)C(=O)[C@@]2(O)C(O)=C3C(=O)c4c(O)cccc4[C@@](C)(O)[C@H]3C[C@@H]12 [TETRACYCLINE], the zone of inhibition at 30 µg/disc [6] is reported as 38 mm.

From ChEMBL document CHEMBL1158878, “New phomopsolides from a Penicillium sp” (1997)
